Values joined by “and” are separate entries in the source; they are usually repeats but may differ in a detail not shown here. Equal entries are not always repeated.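 Dose response: 5 concentrations. Exposure: 48 h. Format: 96-well plates. Endpoint: linear interpolation; highest concentration if not reached. GI50: concentration for 50% inhibition of growth. TGI marks complete inhibition of growth.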
Tests used:
Assay in all cases: DTP human tumour cell line panel, 48 h
UACC-257 melanoma = system: UACC-257 melanoma
OVCAR-8 ovarian = system: OVCAR-8 ovarian
TK-10 renal = system: TK-10 renal
OVCAR-3 ovarian = system: OVCAR-3 ovarian
LOX IMVI melanoma = system: LOX IMVI melanoma
SK-MEL-28 melanoma = system: SK-MEL-28 melanoma
COLO 205 colon = system: COLO 205 colon
786-0 renal = system: 786-0 renal
SNB-19 CNS = system: SNB-19 CNS
SF-295 CNS = system: SF-295 CNS
SNB-75 CNS = system: SNB-75 CNS
RXF 393 renal = system: RXF 393 renal
OVCAR-4 ovarian = system: OVCAR-4 ovarian
MCF7 breast = system: MCF7 breast
SK-OV-3 ovarian = system: SK-OV-3 ovarian
BT-549 breast = system: BT-549 breast
SK-MEL-5 melanoma = system: SK-MEL-5 melanoma
HCT-15 colon = system: HCT-15 colon
MALME-3M melanoma = system: MALME-3M melanoma
MDA-MB-231 breast = system: MDA-MB-231 breast
NCI-H522 lung = system: NCI-H522 lung
MOLT-4 leukemia = system: MOLT-4 leukemia
HL-60(TB) leukemia = system: HL-60(TB) leukemia
DU-145 prostate = system: DU-145 prostate
SF-539 CNS = system: SF-539 CNS
K-562 leukemia = system: K-562 leukemia
HOP-92 NSCLC = system: HOP-92 NSCLC
SW-620 colon = system: SW-620 colon
CAKI-1 renal = system: CAKI-1 renal
NCI-H460 lung = system: NCI-H460 lung
U251 CNS = system: U251 CNS
T-47D breast = system: T-47D breast
PC-3 prostate = system: PC-3 prostate
HS 578T breast = system: HS 578T breast
KM12 colon = system: KM12 colon
HT29 colon = system: HT29 colon
M14 melanoma = system: M14 melanoma
HOP-62 NSCLC = system: HOP-62 NSCLC
UO-31 renal = system: UO-31 renal
SF-268 CNS = system: SF-268 CNS
HCT-116 colon = system: HCT-116 colon
A498 renal = system: A498 renal
SK-MEL-2 melanoma = system: SK-MEL-2 melanoma
CCRF-CEM leukemia = system: CCRF-CEM leukemia
ACHN renal = system: ACHN renal
MDA-MB-435 = system: MDA-MB-435
UACC-62 melanoma = system: UACC-62 melanoma
SN12C renal = system: SN12C renal
IGROV1 ovarian = system: IGROV1 ovarian
EKVX NSCLC = system: EKVX NSCLC
NCI-H226 lung = system: NCI-H226 lung
A549 NSCLC = system: A549 NSCLC

Q: `CCN(CC)CCCC(CO)Nc1ccnc2cc(Cl)ccc12` (centres undefined) was tested. Which GI50 (UACC-257 melanoma) did it give?
A: 18.1 µM and 19.2 µM

Q: What about the TGI (UACC-257 melanoma) of the same molecule?
A: 33 µM and 35.2 µM

Q: What about the GI50 (OVCAR-8 ovarian) of the same molecule?
A: 38.5 µM and 56.1 µM

Q: And the TGI (OVCAR-8 ovarian)?
A: > 100 µM

Q: What about the GI50 (TK-10 renal) of the same molecule?
A: 46 µM and 32.4 µM

Q: What about the TGI (TK-10 renal) of the same molecule?
A: > 100 µM

Q: What about the GI50 (OVCAR-3 ovarian) of the same molecule?
A: 28.3 µM and 32.6 µM

Q: And the TGI (OVCAR-3 ovarian)?
A: 77.1 µM and > 100 µM

Q: And the GI50 (LOX IMVI melanoma)?
A: 30.1 µM and 27.6 µM

Q: And the TGI (LOX IMVI melanoma)?
A: 59.6 µM and 51.5 µM

Q: And the GI50 (SK-MEL-28 melanoma)?
A: 25 µM and > 100 µM

Q: What about the TGI (SK-MEL-28 melanoma) of the same molecule?
A: 57.5 µM and > 100 µM

Q: And the GI50 (COLO 205 colon)?
A: 39.9 µM and 34.5 µM

Q: And the TGI (COLO 205 colon)?
A: > 100 µM

Q: And the GI50 (786-0 renal)?
A: 54.9 µM and 42.3 µM

Q: And the TGI (786-0 renal)?
A: > 100 µM

Q: What about the GI50 (SNB-19 CNS) of the same molecule?
A: > 100 µM

Q: And the TGI (SNB-19 CNS)?
A: > 100 µM

Q: What about the GI50 (SF-295 CNS) of the same molecule?
A: 18.9 µM and 18 µM

Q: And the TGI (SF-295 CNS)?
A: 46.6 µM and 45.3 µM

Q: What about the GI50 (SNB-75 CNS) of the same molecule?
A: > 100 µM

Q: And the TGI (SNB-75 CNS)?
A: > 100 µM

Q: And the GI50 (RXF 393 renal)?
A: 35.8 µM and 41.1 µM

Q: And the TGI (RXF 393 renal)?
A: > 100 µM

Q: What about the GI50 (OVCAR-4 ovarian) of the same molecule?
A: > 100 µM and 58.2 µM

Q: And the TGI (OVCAR-4 ovarian)?
A: > 100 µM

Q: What about the GI50 (MCF7 breast) of the same molecule?
A: 47.9 µM and 56.1 µM

Q: What about the TGI (MCF7 breast) of the same molecule?
A: > 100 µM

Q: What about the GI50 (SK-OV-3 ovarian) of the same molecule?
A: > 100 µM and 91.5 µM

Q: And the TGI (SK-OV-3 ovarian)?
A: > 100 µM

Q: And the GI50 (BT-549 breast)?
A: 33.8 µM and 30.8 µM

Q: What about the TGI (BT-549 breast) of the same molecule?
A: > 100 µM

Q: What about the GI50 (SK-MEL-5 melanoma) of the same molecule?
A: 20 µM and 18 µM

Q: And the TGI (SK-MEL-5 melanoma)?
A: 44.8 µM and 37.6 µM

Q: What about the GI50 (HCT-15 colon) of the same molecule?
A: > 100 µM

Q: What about the TGI (HCT-15 colon) of the same molecule?
A: > 100 µM

Q: And the GI50 (MALME-3M melanoma)?
A: 29.4 µM and 26.5 µM

Q: What about the TGI (MALME-3M melanoma) of the same molecule?
A: 59.1 µM and 49.9 µM

Q: What about the GI50 (MDA-MB-231 breast) of the same molecule?
A: 70.3 µM and 57.1 µM

Q: What about the TGI (MDA-MB-231 breast) of the same molecule?
A: > 100 µM

Q: And the GI50 (NCI-H522 lung)?
A: 56.9 µM and > 100 µM

Q: And the TGI (NCI-H522 lung)?
A: > 100 µM

Q: What about the GI50 (MOLT-4 leukemia) of the same molecule?
A: 31 µM and 34.3 µM

Q: And the TGI (MOLT-4 leukemia)?
A: > 100 µM

Q: What about the GI50 (HL-60(TB) leukemia) of the same molecule?
A: 24.4 µM and 25 µM

Q: What about the TGI (HL-60(TB) leukemia) of the same molecule?
A: > 100 µM

Q: What about the GI50 (DU-145 prostate) of the same molecule?
A: > 100 µM

Q: And the TGI (DU-145 prostate)?
A: > 100 µM

Q: And the GI50 (SF-539 CNS)?
A: 15.9 µM and 17.3 µM

Q: What about the TGI (SF-539 CNS) of the same molecule?
A: 35.4 µM and 35.3 µM

Q: And the GI50 (K-562 leukemia)?
A: 30.4 µM and 36.3 µM

Q: And the TGI (K-562 leukemia)?
A: > 100 µM

Q: What about the GI50 (HOP-92 NSCLC) of the same molecule?
A: 22.6 µM and 20.5 µM

Q: And the TGI (HOP-92 NSCLC)?
A: > 100 µM and 88.5 µM

Q: What about the GI50 (SW-620 colon) of the same molecule?
A: 50.6 µM and > 100 µM

Q: What about the TGI (SW-620 colon) of the same molecule?
A: > 100 µM

Q: What about the GI50 (CAKI-1 renal) of the same molecule?
A: 32.7 µM and 30.7 µM

Q: And the TGI (CAKI-1 renal)?
A: > 100 µM and 85.5 µM

Q: What about the GI50 (NCI-H460 lung) of the same molecule?
A: 66.2 µM and 82.7 µM

Q: And the TGI (NCI-H460 lung)?
A: > 100 µM

Q: And the GI50 (U251 CNS)?
A: 67.6 µM and 70.8 µM

Q: And the TGI (U251 CNS)?
A: > 100 µM

Q: And the GI50 (T-47D breast)?
A: > 100 µM

Q: And the TGI (T-47D breast)?
A: > 100 µM

Q: What about the GI50 (PC-3 prostate) of the same molecule?
A: 66.2 µM and 34.4 µM

Q: And the TGI (PC-3 prostate)?
A: > 100 µM

Q: What about the GI50 (HS 578T breast) of the same molecule?
A: > 100 µM and 72.5 µM

Q: And the TGI (HS 578T breast)?
A: > 100 µM

Q: What about the GI50 (KM12 colon) of the same molecule?
A: 49.1 µM and 66.8 µM

Q: And the TGI (KM12 colon)?
A: > 100 µM

Q: And the GI50 (HT29 colon)?
A: 32.2 µM and 64.3 µM

Q: What about the TGI (HT29 colon) of the same molecule?
A: > 100 µM

Q: And the GI50 (M14 melanoma)?
A: 16.6 µM and 17 µM

Q: What about the TGI (M14 melanoma) of the same molecule?
A: 30.9 µM and 31.2 µM

Q: What about the GI50 (HOP-62 NSCLC) of the same molecule?
A: 82.4 µM and 68.2 µM

Q: And the TGI (HOP-62 NSCLC)?
A: > 100 µM

Q: And the GI50 (UO-31 renal)?
A: > 100 µM

Q: And the TGI (UO-31 renal)?
A: > 100 µM

Q: What about the GI50 (SF-268 CNS) of the same molecule?
A: 64.3 µM and 75.7 µM

Q: What about the TGI (SF-268 CNS) of the same molecule?
A: > 100 µM

Q: What about the GI50 (HCT-116 colon) of the same molecule?
A: 21.9 µM and 26.3 µM

Q: And the TGI (HCT-116 colon)?
A: 73.7 µM and 80.1 µM

Q: And the GI50 (A498 renal)?
A: > 100 µM and 32.7 µM

Q: And the TGI (A498 renal)?
A: > 100 µM

Q: And the GI50 (SK-MEL-2 melanoma)?
A: > 100 µM and 90.2 µM

Q: And the TGI (SK-MEL-2 melanoma)?
A: > 100 µM

Q: What about the GI50 (CCRF-CEM leukemia) of the same molecule?
A: 45.4 µM and 15 µM

Q: What about the TGI (CCRF-CEM leukemia) of the same molecule?
A: > 100 µM and 39.8 µM

Q: And the GI50 (ACHN renal)?
A: > 100 µM and 54.1 µM

Q: What about the TGI (ACHN renal) of the same molecule?
A: > 100 µM

Q: And the GI50 (MDA-MB-435)?
A: 19.5 µM and 20.5 µM

Q: And the TGI (MDA-MB-435)?
A: 42.7 µM and 43.2 µM

Q: And the GI50 (UACC-62 melanoma)?
A: 22.2 µM and 37.7 µM

Q: What about the TGI (UACC-62 melanoma) of the same molecule?
A: 49.6 µM and > 100 µM

Q: And the GI50 (SN12C renal)?
A: > 100 µM and 48.5 µM

Q: And the TGI (SN12C renal)?
A: > 100 µM

Q: And the GI50 (IGROV1 ovarian)?
A: > 100 µM

Q: What about the TGI (IGROV1 ovarian) of the same molecule?
A: > 100 µM

Q: And the GI50 (EKVX NSCLC)?
A: 54.5 µM and 74.2 µM

Q: What about the TGI (EKVX NSCLC) of the same molecule?
A: > 100 µM

Q: And the GI50 (NCI-H226 lung)?
A: > 100 µM and 36.5 µM

Q: And the TGI (NCI-H226 lung)?
A: > 100 µM and 92.8 µM

Q: And the GI50 (A549 NSCLC)?
A: 50.9 µM and 73.7 µM

Q: And the TGI (A549 NSCLC)?
A: > 100 µM

Source: PubChem BioAssay (NCI)
